# Measured values as given in publication PMC6613932 (Bioorganic & medicinal chemistry letters, 2018).
# Molecular target: 5-HT2AR (Homo sapiens, UniProt P28223)
# Assay: Inhibition of 5-HT
# Assay type: cell-based
# Conditions: inhibition of 1 μM 5-HT-evoked Cai2+ release; compared with parent (+)-M100907
# Chain of 5-HT2AR (P28223 whole entry): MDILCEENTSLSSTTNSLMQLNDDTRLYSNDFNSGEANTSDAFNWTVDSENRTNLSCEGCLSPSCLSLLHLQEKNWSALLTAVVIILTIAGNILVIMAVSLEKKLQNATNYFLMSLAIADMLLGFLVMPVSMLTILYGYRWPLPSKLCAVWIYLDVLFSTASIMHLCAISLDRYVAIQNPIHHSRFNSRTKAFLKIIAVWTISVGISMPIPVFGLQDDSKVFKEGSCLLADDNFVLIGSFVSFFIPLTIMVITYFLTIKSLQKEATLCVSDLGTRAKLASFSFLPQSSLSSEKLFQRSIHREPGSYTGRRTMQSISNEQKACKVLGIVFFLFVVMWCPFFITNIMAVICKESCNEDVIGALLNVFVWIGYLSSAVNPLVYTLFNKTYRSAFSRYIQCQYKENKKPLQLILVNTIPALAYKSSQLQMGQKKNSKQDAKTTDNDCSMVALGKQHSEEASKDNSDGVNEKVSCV
row,Compound,antagonist activity / potency in words
1,C#CCOCCOCCOc1cccc([C@H](O)C2CCN(CCc3ccc(F)cc3)CC2)c1OC [Compound 5],slightly lower potency
2,COc1c(OCCOCCOc2cn(CCOCCOc3cccc([C@H](O)C4CCN(CCc5ccc(F)cc5)CC4)c3OC)nn2)cccc1[C@H](O)C1CCN(CCc2ccc(F)cc2)CC1 [Compound 15],slightly lower potency
3,COc1c(OCCOCCN=[N+]=[N-])cccc1[C@H](O)C1CCN(CCc2ccc(F)cc2)CC1 [Compound 4],retained antagonist activity
